Laboratory results published in PubChem BioAssay AID330 (DTP/NCI, 2004).
“And” between values parts separate entries of the source, which are not always exact repeats. Equal values may be shown once. Toxic doses and inconclusive results are not listed. Peptide text beside a SMILES is read from it. * marks the point of attachment. Cbz = O=C(OCc1ccccc1)*

System: P388 leukemia ip, CD2F1 mice, survival T/C
Test: NCI In Vivo Anticancer Drug Screen. Data for tumor model P388 Leukemia (intraperitoneal) in CD2F1 (CDF1) mice
Settings: endpoint: median survival time, higher = longer survival
Summary of the method: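 Mice carrying the transplanted tumor received test compound or vehicle. Survival was recorded in each group, and the value is the treated-group measurement divided by that of the vehicle-treated control group.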

[1] = dose: 15.0 mg/kg/injection, schedule: Q01DX005 (ip), vehicle: Klucel (hydroxypropylcellulose) (HPC)
[2] = dose: 30.0 mg/kg/injection, schedule: Q01DX005 (ip), vehicle: Klucel (hydroxypropylcellulose) (HPC)
[3] = dose: 100.0 mg/kg/injection, schedule: Q04DX003 (ip), vehicle: Klucel (hydroxypropylcellulose) (HPC)
[4] = dose: 200.0 mg/kg/injection, schedule: Q04DX003 (ip), vehicle: Klucel (hydroxypropylcellulose) (HPC)
[5] = dose: 400.0 mg/kg/injection, schedule: Q04DX003 (ip), vehicle: Klucel (hydroxypropylcellulose) (HPC)
[6] = dose: 50.0 mg/kg/injection, schedule: Q01DX009 (ip), vehicle: saline with Tween-80
[7] = dose: 100.0 mg/kg/injection, schedule: Q01DX009 (ip), vehicle: saline with Tween-80
[8] = dose: 200.0 mg/kg/injection, schedule: Q01DX009 (ip), vehicle: saline with Tween-80
[9] = dose: 100.0 mg/kg/injection, schedule: Q01DX001 (ip), vehicle: saline with Tween-80
[10] = dose: 200.0 mg/kg/injection, schedule: Q01DX001 (ip), vehicle: saline with Tween-80
[11] = dose: 400.0 mg/kg/injection, schedule: Q01DX001 (ip), vehicle: saline with Tween-80
[12] = dose: 50.0 mg/kg/injection, schedule: Q01DX009 (ip), vehicle: saline
[13] = dose: 100.0 mg/kg/injection, schedule: Q01DX009 (ip), vehicle: saline
[14] = dose: 100.0 mg/kg/injection, schedule: Q04DX003 (ip), vehicle: saline with Tween-80
[15] = dose: 200.0 mg/kg/injection, schedule: Q01DX009 (ip), vehicle: saline
[16] = dose: 200.0 mg/kg/injection, schedule: Q04DX003 (ip), vehicle: saline with Tween-80
[17] = dose: 60.0 mg/kg/injection, schedule: Q01DX005 (ip), vehicle: saline with Tween-80
[18] = dose: 50.0 mg/kg/injection, schedule: Q01DX009 (ip), vehicle: Klucel (hydroxypropylcellulose) (HPC)
[19] = dose: 100.0 mg/kg/injection, schedule: Q01DX009 (ip), vehicle: Klucel (hydroxypropylcellulose) (HPC)
[20] = dose: 50.0 mg/kg/injection, schedule: Q01DX005 (ip), vehicle: Klucel (hydroxypropylcellulose) (HPC)
[21] = dose: 100.0 mg/kg/injection, schedule: Q01DX005 (ip), vehicle: Klucel (hydroxypropylcellulose) (HPC)
[22] = dose: 200.0 mg/kg/injection, schedule: Q01DX005 (ip), vehicle: Klucel (hydroxypropylcellulose) (HPC)
[23] = dose: 60.0 mg/kg/injection, schedule: Q01DX005 (ip), vehicle: Klucel (hydroxypropylcellulose) (HPC)

COc1cc2c3c(c1OC)C=C[C@@H]1CCCN(CC2)[C@H]31
T/C (dose: 7.5 mg/kg/injection, schedule: Q01DX005 (ip), vehicle: Klucel (hydroxypropylcellulose) (HPC)): 100 % of control
T/C [1]: 98 % of control
T/C [2]: 101 % of control

C(=C1\Oc2ccccc2N=C1OCCN1CCOCC1)/c1ccccc1
T/C [3]: 97 % of control
T/C [4]: 99 % of control
T/C [5]: 98 % of control

O=CC1(c2ccco2)SCCCS1
T/C [6]: 106 % of control
T/C [7]: 104 % of control
T/C [8]: 104 % of control

O=C(O)Cn1/c(=N\N=C\c2ccc([N+](=O)[O-])cc2)sc2ccccc21
T/C [9]: 91 % of control
T/C [10]: 89 % of control
T/C [11]: 99 % of control

Cc1ccc2[nH]c(=O)oc(=O)c2c1
T/C (dose: 25.0 mg/kg/injection, schedule: Q01DX009 (ip), vehicle: saline): 105 % of control
T/C [12]: 107 % of control
T/C (dose: 50.0 mg/kg/injection, schedule: Q04DX003 (ip), vehicle: saline with Tween-80): 100 % of control
T/C [13]: 96 % of control
T/C [14]: 108 % of control
T/C [15]: 110 % of control
T/C [16]: 108 % of control

Cc1ccc(S(=O)(=O)OC2=C3OC(=O)C4(C3C=CC=C2)C2C=CC=CC24)cc1 (stereo not given)
T/C [9]: 96 % of control
T/C [10]: 93 % of control
T/C [11]: 90 % of control

CCN(CC)C(=S)Oc1cc2oc(=O)cc(C)c2cc1Cl
T/C [6]: 98 % of control
T/C [7]: 100 % of control
T/C [8]: 100 % of control

O=NN(CCCl)C(=O)Nc1ccc(Br)cc1
T/C (dose: 6.25 mg/kg/injection, schedule: Q01DX009 (ip), vehicle: saline): 122 % of control
T/C (dose: 12.5 mg/kg/injection, schedule: Q01DX009 (ip), vehicle: suspension in saline): 150 % of control
T/C (dose: 25.0 mg/kg/injection, schedule: Q01DX009 (ip), vehicle: suspension in saline): 167 % of control
T/C [12]: 122 % of control
T/C (dose: 50.0 mg/kg/injection, schedule: Q01DX009 (ip), vehicle: suspension in saline): 167 % of control

COc1ccc(C(OC(C)(C)C)c2cc(C(C)(C)C)cc(C(C)(C)C)c2O)cc1 (stereo not given)
T/C (dose: 50.0 mg/kg/injection, schedule: Q01DX005 (ip), vehicle: distilled water + alcohol): 101 % of control
T/C (dose: 100.0 mg/kg/injection, schedule: Q01DX005 (ip), vehicle: distilled water + alcohol): 104 % of control
T/C (dose: 200.0 mg/kg/injection, schedule: Q01DX005 (ip), vehicle: distilled water + alcohol): 97 % of control

O=C(O)C(Cc1ccccc1)NC(c1ccccc1)P(=O)(O)O (stereo not given)
T/C [17]: 101 % of control
T/C (dose: 120.0 mg/kg/injection, schedule: Q01DX005 (ip), vehicle: saline with Tween-80): 99 % of control
T/C (dose: 240.0 mg/kg/injection, schedule: Q01DX005 (ip), vehicle: saline with Tween-80): 105 % of control

CC#CC#C/C=C1/C=CC(=O)O1
T/C (dose: 12.5 mg/kg/injection, schedule: Q01DX009 (ip), vehicle: Klucel (hydroxypropylcellulose) (HPC)): 105 % of control
T/C (dose: 25.0 mg/kg/injection, schedule: Q01DX009 (ip), vehicle: Klucel (hydroxypropylcellulose) (HPC)): 104 % of control
T/C [18]: 107 % of control
T/C [19]: 107 % of control

O=C(N/N=C/c1cc(Cl)cc(Cl)c1[O-])c1ccccc1.O=C(N/N=C/c1cc(Cl)cc(Cl)c1[O-])c1ccccc1.[Mn+2]
T/C [9]: 98 % of control
T/C [10]: 99 % of control
T/C [11]: 105 % of control

C[CH2][Sn]([CH2]C)([CH2]C)[NH]S(=O)(=O)c1ccc(C)cc1
T/C (dose: 3.12 mg/kg/injection, schedule: Q01DX009 (ip), vehicle: Klucel (hydroxypropylcellulose) (HPC)): 105 % of control

O=C(NC(Cc1ccccc1)C(=O)NC(Cc1ccc(O)cc1)C(=O)O)OCc1ccccc1 (stereo not drawn) (Cbz-Phe-Tyr-OH; configuration not given here)
T/C (dose: 50.0 mg/kg/injection, schedule: Q01DX005 (ip), vehicle: saline + Tween-80 + alcohol): 97 % of control
T/C (dose: 100.0 mg/kg/injection, schedule: Q01DX005 (ip), vehicle: saline + Tween-80 + alcohol): 95 % of control
T/C (dose: 200.0 mg/kg/injection, schedule: Q01DX005 (ip), vehicle: saline + Tween-80 + alcohol): 96 % of control

O=C(O)c1cc(-c2ccccc2Cl)nc2cc3ccccc3cc12
T/C [18]: 111 % of control
T/C [19]: 101 % of control
T/C (dose: 200.0 mg/kg/injection, schedule: Q01DX009 (ip), vehicle: Klucel (hydroxypropylcellulose) (HPC)): 101 % of control

Nc1cccc2c1C(=O)c1ccc(Cl)cc1C2=O
T/C [20]: 99 % of control
T/C [21]: 94 % of control
T/C [22]: 99 % of control

CC1OC(=O)/C(=C\N(C)C)C1=O (stereo not given)
T/C [20]: 105 % of control
T/C [21]: 111 % of control
T/C [22]: 109 % of control

Cc1ccc(C(N)=Nc2ccccc2)cc1
T/C [17]: 100 % of control

CC1(C)CC(O)C2OC2(C)C1 (stereo not given)
T/C [12]: 94 % of control
T/C [13]: 89 % of control
T/C [15]: 101 % of control

COc1ccc2c(c1)OC(C)(C)C(c1ccccc1)=C2c1ccc(OCCBr)c([N+](=O)[O-])c1
T/C [20]: 107 % of control
T/C [21]: 98 % of control
T/C [22]: 101 % of control

S=C1SC2=NCCN2C2=NCCN12
T/C (dose: 11.25 mg/kg/injection, schedule: Q01DX001 (ip), vehicle: Klucel (hydroxypropylcellulose) (HPC)): 96 % of control
T/C (dose: 22.5 mg/kg/injection, schedule: Q01DX001 (ip), vehicle: Klucel (hydroxypropylcellulose) (HPC)): 102 % of control
T/C (dose: 45.0 mg/kg/injection, schedule: Q01DX001 (ip), vehicle: Klucel (hydroxypropylcellulose) (HPC)): 100 % of control

COC(=O)[C@@H]1N2C(=O)C=NO[C@H]2SC1(C)C
T/C (dose: 60.0 mg/kg/injection, schedule: Q01DX005 (ip), vehicle: saline): 95 % of control
T/C (dose: 120.0 mg/kg/injection, schedule: Q01DX005 (ip), vehicle: saline): 98 % of control
T/C (dose: 240.0 mg/kg/injection, schedule: Q01DX005 (ip), vehicle: saline): 104 % of control

COC1OC2COc3ccccc3OC2C(NC(N)=S)C1OC (stereo not given)
T/C [23]: 105 % of control
T/C (dose: 120.0 mg/kg/injection, schedule: Q01DX005 (ip), vehicle: Klucel (hydroxypropylcellulose) (HPC)): 105 % of control
T/C (dose: 240.0 mg/kg/injection, schedule: Q01DX005 (ip), vehicle: Klucel (hydroxypropylcellulose) (HPC)): 105 % of control

CC(C)Sc1ncnc2nc[nH]c12
T/C [6]: 100 % of control
T/C [7]: 104 % of control
T/C [14]: 95 % of control
T/C [8]: 118 % of control
T/C [16]: 86 % of control

COC(=O)c1c[nH]c(=S)n1C
T/C (dose: 100.0 mg/kg/injection, schedule: Q04DX002 (ip), vehicle: saline): 98 % of control
T/C (dose: 200.0 mg/kg/injection, schedule: Q04DX002 (ip), vehicle: saline): 100 % of control
T/C (dose: 400.0 mg/kg/injection, schedule: Q04DX002 (ip), vehicle: saline): 105 % of control

CCOC(=O)C(=C\c1nncn1-c1ccccc1)/C=C(/O)c1ccccc1
T/C [1]: 97 % of control
T/C [2]: 93 % of control
T/C [23]: 87 % of control

CCOC(=O)NC(NC(=O)OCC)c1ccc(Cl)cc1
T/C (dose: 100.0 mg/kg/injection, schedule: Q04DX003 (ip), vehicle: saline): 99 % of control
T/C (dose: 200.0 mg/kg/injection, schedule: Q04DX003 (ip), vehicle: saline): 94 % of control
T/C (dose: 400.0 mg/kg/injection, schedule: Q04DX003 (ip), vehicle: saline): 107 % of control

CC12OCCC1C(c1ccccc1[N+](=O)[O-])Nc1ccccc12 (stereo not given)
T/C [9]: 114 % of control
T/C [10]: 97 % of control
T/C [11]: 94 % of control

CC1(C)C(=O)NC(=O)c2ccccc21
T/C (dose: 12.5 mg/kg/injection, schedule: Q01DX005 (ip), vehicle: Klucel (hydroxypropylcellulose) (HPC)): 107 % of control
T/C (dose: 25.0 mg/kg/injection, schedule: Q01DX005 (ip), vehicle: Klucel (hydroxypropylcellulose) (HPC)): 107 % of control
T/C [20]: 100 % of control and 102 % of control

O=NN1CC23C=CCCC2(CCCC3)C1 (stereo not given)
T/C [3]: 113 % of control
T/C [4]: 114 % of control
T/C [5]: 104 % of control
